Experimental data published in patent US11492594B2, “Method for producing engineered heart muscle (EHM)” (GEORG-AUGUST-UNIVERSITÄT GÖTTINGEN STIFTUNG ÖFFENTLICHEN …, priority 2013, dated 2022).

Key:
[1] = test system: hEHM (human engineered heart muscle); assay: Spontaneous contraction frequency of hEHM by light microscopy; format: cell-based; details: n=6
Experimental: (§1) The inventors analyzed force of contraction and twitch kinetics (contraction time: time from 50% to maximal contraction; relaxation time: time from maximal contraction to 50% relaxation) under isometric conditions as described before (Zimmermann et al. Circ Res 90: 223-230 (2002), incorporated herein by reference). Contraction frequency was assessed by light microcopy (unstimulated spontaneous contractions) immediately after removing EHMs from the incubator.

[2] = test system: hEHM (human engineered heart muscle); assay: Isometric force of contraction and twitch kinetics of hEHM; format: cell-based
Experimental: as §1

[3] = test system: hEHM (human engineered heart muscle); assay: hEHM formation and contractile force with varied matrix, basal medium and supplements; format: cell-based; details: for force-generation of hEHM: 10 ng/ml added to serum-free medium, hES2; for hEHM formation and function by matrix component: contractile force at 2 mmol/L extracellular calcium
Experimental: The inventors constructed hEHMs using a modified EHM-engineering protocol (Zimmermann et al. Circ Res 90: 223-230 (2002), incorporated herein by reference). Briefly, EHMs (reconstitution volume: 450 μl) were prepared by pipetting a mixture containing freshly dispersed ESC-derivatives (1×10^4-15×10^6 cells in Iscove-Medium with 20% fetal calf serum, 1% non-essential amino acids, 2 mmol/l glutamine, 100 μmol/l β-mercaptoethanol, 100 U/ml penicillin, and […]), pH-neutralized collagen type I from rat tails (0.4 mg/EHM), Matrigel™ (10% v/v; Becton Dickenson or tebu), and concentrated serum-containing culture medium (2× DMEM, 20% horse serum, 4% chick embryo extract, 200 U/ml penicillin, and […] streptomycin) in circular molds (inner/outer diameter: 2/4 mm; height: 5 mm) (Table 1). hEHM condensed quickly within the casting molds and were transferred onto static stretch devices (110% of slack length) (Zimmermann et al. Nat Med 12: 452-458 (2006), incorporated herein by reference) on culture day 3. Medium was changed every other day. hEHM culture under stretch was performed for 7 days.
A protocol with reduced xenogenic components (Matrix protocol, Table 1) was established to enable pre-GMP hEHM. Cells were reconstituted in a mixture of pH-neutralized bovine collagen (Devros Medical, 0.4 mg/EHM), concentrated serum-containing culture medium (2× DMEM, 40% fetal calf serum, 200 U/ml penicillin, and […] streptomycin) and cultured in Iscove-Medium with 20% fetal calf serum, 1% non-essential amino acids, 2 mmol/l glutamine, 0.3 mmol/l ascorbic acid, 100 μmol/l β-mercaptoethanol, 100 U/ml penicillin, and 100 μg/ml streptomycin.
To generate fully defined, serum-free EHM cells were reconstituted in a mixture of pH-neutralized bovine collagen (Devros Medical, 0.4 mg/EHM), concentrated serum-free medium medium (2× DMEM, 8% B27, 200 U/ml penicillin, and […] streptomycin) and cultured in Iscove-Medium with full 4% B27, 1% non-essential amino acids, 2 mmol/l glutamine, 0.3 mmol/l ascorbic acid, 20 ng/ml IGF-1, 10 ng/ml FGF2, 10 ng/ml VEGF, 5 ng/ml TGFb1 (culture day 0-3 only), and 100 U/ml penicillin, and 100 μg/ml streptomycin (Serum-free protocol, Table 1). B27 supplement contains vitamins (Biotin, DL Alpha Tocopherol, Acetate DL Alpha-Tocopherol, Vitamin A), proteins and enzymes (BSA, fatty acid free Fraction V, Catalase, Human Recombinant Insulin, Human Transferrin, Superoxide Dismutase), and other cell-supporting components (Corticosterone, D-Galactose, Ethanolamine, Glutathione (reduced), L-Carnitine, Linoleic Acid, Linolenic Acid, Progesterone, Putrescine, Sodium Selenite, and T3 (triodo-I-thyronine). Where indicated full B27 (Invitrogen, A1486701) was compared to B27 without antioxidants (Invitrogen, #10889038) and B27 without insulin (Invitrogen, #0050129SA). B27 supplement was replaced by a custom-made supplement consisting of Albumin, Transferrin, Ethanolamine, Sodium selenite, L-Carnitine HCl, Hydrocortisone, Fatty acid supplement, and Triiodo-L-thyronine (Table 2).
as §1

[4] = test system: human embryoid body (EB) cultures; assay: Flow cytometry-based screen of media and supplements in 3D human embryoid body (EB) cultures; details: for cell death (sub-G1 fraction): compared to serum free medium without the factor or to other media, growth factors at above EC50 concentrations; for cardiomyocyte actinin expression (CM maturation): mean actinin fluorescence per cardiomyocyte
Experimental: EBs cultured in different medium conditions were made into a single cell suspension as described above. Cells were fixed in 70% ice cold ethanol under constant mixing. The cells were stained for sarcomeric actinin (Sigma) to label cardiomyocytes and DAPI to analyze nuclear DNA content and to exclude cell doublets. Cells were run on a LSRII Cytometer (BD). At least 10,000 live cells were analyzed. The following parameters were then analyzed, (1) cell death (percentage of cells in the sub-G1 fraction), (2) cardiomyocyte and non-myocyte percentage (Actinin-positive and negative cells, respectively) (3) Cardiomyocte maturation (mean actinin fluorescence), (4) cardiomyocyte and (5) non-myocyte size (based on sideward scatter area, SSC-A).

[5] = compared to serum free medium without the factor

## CC(C)Cn1c(=O)n(C)c(=O)c2[nH]cnc21 [IBMX, 3-isobutyl-1-methylxanthine]
[1]; IBMX 100 μmol/l in addition to isoprenaline
  spontaneous beating rate: 1.6±0.1 Hz

## [Ca+2] [calcium]
[2]; at 2.4 mmol/l calcium, n=17
  maximal twitch mean force: 130±13 μN
[2]; increasing extracellular calcium, n=17
  EC50: 800 ± 40 µM
[3]; RPMI plus 0.8 mM CaCl (final free calcium 1.242 mmol/L) versus RPMI (0.424 mmol/L)
  maximal force and isoprenaline response of hEHM in RPMI with added calcium: lead to measurable maximal force and better responsiveness to isoprenalin

## CC(C)NCC(O)c1ccc(O)c(O)c1 (stereo not shown) [isoprenaline, reference compound]
[1]; incubation with isoprenaline, hEHM at 10 days, baseline 0.8±0.05 Hz at 37° C.
  spontaneous beating frequency: 1.2±0.1 Hz
[2]; 1 μmol/l isoprenaline at 0.4 mmol/l extracellular calcium, n=12
  relaxation time: 113 ± 2.3 ms
[2]; 1 μmol/l isoprenaline at sub-EC50 extracellular calcium (0.4 mmol/l), n=12
  increase in force of contraction: 47±12%

## FGF-2: peptide growth factor (Peprotech, AF-100-18B)
[3]
  force-generation of hEHM: able to enhance force-generation
[4]; [5]
  non-myocyte growth: supported non-myocyte growth
[4]; sideward scatter area
  cardiomyocyte cell size: increased cardiomyocyte cell size

## IGF-1: peptide growth factor (Peprotech, AF-100-11)
[4]
  cell death (sub-G1 fraction): appeared to protect from cell death

## Neuregulin-1
[4]
  cell death (sub-G1 fraction): caused substantial cell death

## TGFβ1: peptide growth factor (Peprotech, 100-21)
[3]; addition to serum-free medium from day 0 to 3 (5 ng/ml)
  formation of functional EHM: essential
[3]; prolonged treatment (culture day 0-10) versus day 0-3
  formation of functional EHM, prolonged treatment: did not yield an additional benefit
[4]
  cardiomyocyte actinin expression (CM maturation): enhanced individual cardiomyocyte actinin expression

## VEGF
[3]
  force-generation of hEHM: able to enhance force-generation
[4]
  cardiomyocyte actinin expression (CM maturation): enhanced individual cardiomyocyte actinin expression

## fibronectin
[3]
  hEHM formation and function by matrix component: did not yield additional benefit

## laminin
[3]
  hEHM formation and function by matrix component: did not yield additional benefit

B1: PDGF-BB: peptide growth factor (protein, UniProt P01127 82-190, looked up)
Platelet-derived growth …: SLGSLTIAEPAMIAECKTRTEVFEISRRLIDRTNANFLVWPPCVEVQRCSGCCNNRNVQCRPTQVQLRPVQVRKIEIVRKKPIFKKATVTLEDHLACKCETVAAARPVT
[4]
  cell death (sub-G1 fraction): caused substantial cell death

B2: CT-1: peptide growth factor (Cardiotrophin-1) (protein, UniProt Q16619 1-201, looked up)
Cardiotrophin-1: MSRREGSLEDPQTDSSVSLLPHLEAKIRQTHSLAHLLTKYAEQLLQEYVQLQGDPFGLPSFSPPRLPVAGLSAPAPSHAGLPVHERLRLDAAALAALPPLLDAVCRRQAELNPRAPRLLRRLEDAARQARALGAAVEALLAALGAANRGPRAEPPAATASAASATGVFPAKVLGLRVCGLYREWLSRTEGDLGQLLPGGSA
[4]
  cell death (sub-G1 fraction): caused substantial cell death

B3: TGFβ2: peptide growth factor (protein, UniProt P61812 303-414, looked up)
Transforming growth factor …: ALDAAYCFRNVQDNCCLRPLYIDFKRDLGWKWIHEPKGYNANFCAGACPYLWSSDTQHSRVLSLYNTINPEASASPCCVSQDLEPLTILYYIGKTPKIEQLSNMIVKSCKCS
modifications: Transforming growth factor beta-2
[4]; [5]
  overall effect in growth factor screen: had no beneficial effect
